Data taken from patent US20250340551A1, “SMALL MOLECULE MODULATORS OF STAT6” (Gilead Sciences, Inc., priority 2024, published 2025).

Biological target: human STAT6 (Homo sapiens (Human), UniProt P42226)
Assay: Surface plasmon resonance assay (Biacore 8K, binding to immobilized STAT6)
Settings: human STAT6 aa122-658, N-terminal His-tag, CM5 chip, 25° C.; geometric mean; read-out: STAT6 SPR Kd
Experimental: Biacore instruments from the 8K-series (Cytiva) were used, and measurements were performed at 25° C. Human STAT6 (truncated, aa122-658, with N-terminal His-tag, expressed in insect cells) was immobilized in the active flow cells on a CM5 chip using amine-coupling (default settings) at 10 μg/ml in 10 mM acetate buffer pH 5.5, at a contact time of 120-420 sec. and a flow rate of 10 μl/min. Reference flow cells were deactivated using blank immobilization. PBS-P+ (Cytiva) supplemented with 2% DMSO was used as running buffer, and solvent correction was applied. Compounds were tested by multi-cycle kinetics injections using a contact time of 60 sec., dissociation time of up to 300 sec., and a flow rate of 30 μl/min.
Solvent-corrected, reference-subtracted and blank-corrected data was processed and binding isotherms were fitted according to a single report point from each sensorgram (Standard: Late binding (5 sec. before injection end); alternative: Earlier report point according to binding profile). Data fitting was done both with unfixed Rmax and with Rmax fixed to the theoretical value* assuming 1:1 binding to allow processing of data from both weak and strong binders as well as to evaluate binding stoichiometry.
Positive controls were run at the beginning, during, and at the end of the screen to evaluate surface activity.

Sequence of human STAT6 (P42226 122-658): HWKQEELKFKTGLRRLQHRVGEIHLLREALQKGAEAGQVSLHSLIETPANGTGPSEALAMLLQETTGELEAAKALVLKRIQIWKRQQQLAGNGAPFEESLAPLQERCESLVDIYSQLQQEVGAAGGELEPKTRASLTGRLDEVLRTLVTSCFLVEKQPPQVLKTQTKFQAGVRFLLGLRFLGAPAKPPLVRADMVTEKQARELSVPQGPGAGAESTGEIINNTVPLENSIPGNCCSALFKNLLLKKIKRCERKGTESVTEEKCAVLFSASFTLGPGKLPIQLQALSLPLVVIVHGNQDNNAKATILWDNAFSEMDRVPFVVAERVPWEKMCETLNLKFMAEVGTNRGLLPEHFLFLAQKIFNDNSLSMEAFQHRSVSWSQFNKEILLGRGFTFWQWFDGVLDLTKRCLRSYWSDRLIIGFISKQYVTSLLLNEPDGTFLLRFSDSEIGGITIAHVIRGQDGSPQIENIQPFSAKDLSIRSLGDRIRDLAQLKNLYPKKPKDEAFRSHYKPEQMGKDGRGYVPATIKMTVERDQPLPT

Row | SMILES | Kd [nM]
1 | CN(C)C(=O)c1ccc(C2CCN(Cc3cc4c(-c5ccc(N)nc5CO)ccnc4n3C)CC2)cc1 [Example 1k58, 4-[1-[[4-[6-Amino-2-(hydroxymethyl)-3-pyridyl]-1-methyl-pyrrolo[2,3-b]pyridin-2-yl]methyl]-4-piperidyl]-N,N-dimethyl-benzamide] | 60.8
2 | C[C@@H]1C[C@@H](c2ccc(C(=O)N(C)C)cc2)CCN1Cc1cc2c(-c3ccc(N)cn3)ccnc2n1C (single isomer, unassigned) [Example 1q7] | 5350
3 | COc1nc(-c2ccnc3c2cc(CN2CCC(c4ccc(C(=O)N(C)C)cc4)CC2)n3C)ccc1N [Example 1ad2, 4-(1-((4-(5-Amino-6-methoxypyridin-2-yl)-1-methyl-1H-pyrrolo[2,3-b]pyridin-2-yl)methyl)piperidin-4-yl)-N,N-dimethylbenzamide] | 54
4 | CN(C)C(=O)c1ccc(C2CCN(Cc3cc4c(-c5cnc(N)c(OC(F)(F)F)c5)ccnc4n3C)CC2)cc1 [Example 1k48, 4-[1-[[4-[6-Amino-5-(trifluoromethoxy)-3-pyridyl]-1-methyl-pyrrolo[2,3-b]pyridin-2-yl]methyl]-4-piperidyl]-N,N-dimethyl-benzamide] | 8230
5 | CNc1ccc(-c2ccnc3c2cc(CN2CCC(c4ccc(C(=O)N(C)C)cc4)CC2=O)n3C)cn1 (stereo in doubt) [Example 1s3, N,N-Dimethyl-4-[(4R)-1-[[1-methyl-4-[6-(methylamino)-3-pyridyl]pyrrolo[2,3-b]pyridin-2-yl]methyl]-2-oxo-4-piperidyl]benzamide] | 23.2
6 | CN(C)C(=O)c1ccc(C2CCN(Cc3cc4c(-c5cnc(N)c(C(F)(F)F)c5)ccnc4n3C)CC2)cc1 [Example 1k36, 4-[1-[[4-[6-Amino-5-(trifluoromethyl)-3-pyridyl]-1-methyl-pyrrolo[2,3-b]pyridin-2-yl]methyl]-4-piperidyl]-N,N-dimethyl-benzamide] | 1120
7 | CNc1ccc(-c2ccnc3c2cc(CN2CCC(F)(c4ccc(C(=O)N(C)C)cc4)CC2)n3C)nc1 [Example 1o19, 4-[4-Fluoro-1-[[1-methyl-4-[5-(methylamino)-2-pyridyl]pyrrolo[2,3-b]pyridin-2-yl]methyl]-4-piperidyl]-N,N-dimethyl-benzamide] | 173
8 | CNc1ccc(-c2ccnc3c2cc(CN2CCN(c4ccc(C(=O)N(C)C)cn4)CC2)n3C)nc1 [Example 1n9, N,N-Dimethyl-6-[4-[[1-methyl-4-[5-(methylamino)-2-pyridyl]pyrrolo[2,3-b]pyridin-2-yl]methyl]piperazin-1-yl]pyridine-3-carboxamide] | 8920
9 | C[C@@H]1CN(c2ccc(C(=O)N(C)C)cc2)CCN1Cc1cc2c(-c3ccc(N)nc3)ccnc2n1C [Example 1n4, 4-[(3R)-4-[[4-(6-amino-3-pyridyl)-1-methyl-pyrrolo[2,3-b]pyridin-2-yl]methyl]-3-methyl-piperazin-1-yl]-N,N-dimethyl-benzamide] | 147
10 | CN(C)C(=O)c1ccc(C2CCN(Cc3cc4c(-c5cnc(N)c(N(C)C)c5)ccnc4n3C)CC2)cc1 [Example 1k47, 4-[1-[[4-[6-Amino-5-(dimethylamino)-3-pyridyl]-1-methyl-pyrrolo[2,3-b]pyridin-2-yl]methyl]-4-piperidyl]-N,N-dimethyl-benzamide] | 1210
11 | Cc1cc(C(=O)N(C)C)ccc1C1CCN([C@@H](C)c2cc3c(-c4ccc(N)nc4C#N)ccnc3n2C)CC1 [Example 1af27, (S)-4-(1-(1-(4-(6-Amino-2-cyanopyridin-3-yl)-1-methyl-1H-pyrrolo[2,3-b]pyridin-2-yl)ethyl)piperidin-4-yl)-N,N,3-trimethylbenzamide] | 66.5
12 | CNc1ccc(-c2ccnc3c2cc(CN2CC[C@@H](c4ccc(C(=O)N(C)C)cc4)[C@H](F)C2)n3C)cn1 (single isomer, unassigned) [Example 1s25] | 35.3
13 | COc1c(N)ncc(-c2ccnc3c2cc(CN2CCC(c4ccc(C(=O)N(C)C)cc4)CC2)n3C)c1C [Example 1k19, 4-[1-[[4-(6-Amino-5-methoxy-4-methyl-3-pyridyl)-1-methyl-pyrrolo[2,3-b]pyridin-2-yl]methyl]-4-piperidyl]-N,N-dimethyl-benzamide] | 738
14 | [2H]C([2H])([2H])NC(=O)c1ccc(C2CCN(Cc3cc4c(-c5ccc(N)nc5C#N)ccnc4n3C)CC2)cc1 [Example 1ae15, 4-[1-[[4-(6-Amino-2-cyano-3-pyridyl)-1-methyl-pyrrolo[2,3-b]pyridin-2-yl]methyl]-4-piperidyl]-N-(trideuteriomethyl)benzamide] | 201
15 | CN(C)C(=O)c1ccc(C2CCN(Cc3cc4c(-c5ccc(N)nc5OC(F)(F)F)ccnc4n3C)CC2)cc1 [Example 1k18, 4-[1-[[4-[6-Amino-2-(trifluoromethoxy)-3-pyridyl]-1-methyl-pyrrolo[2,3-b]pyridin-2-yl]methyl]-4-piperidyl]-N,N-dimethyl-benzamide] | 153
16 | CN(C)C(=O)c1ccc(C2CCN(Cc3cc4c(-c5cnc(N)nn5)ccnc4n3C)CC2)cc1 [Example 1k54, 4-[1-[[4-(3-Amino-1,2,4-triazin-6-yl)-1-methyl-pyrrolo[2,3-b]pyridin-2-yl]methyl]-4-piperidyl]-N,N-dimethyl-benzamide] | 104
17 | COCCNc1ccc(-c2ccnc3c2cc(CN2CCC(c4ccc(C(=O)N(C)C)cc4)CC2)n3C)cn1 [Example 1k59, 4-[1-[[4-[6-(2-Methoxyethylamino)-3-pyridyl]-1-methyl-pyrrolo[2,3-b]pyridin-2-yl]methyl]-4-piperidyl]-N,N-dimethyl-benzamide] | 57.3
18 | CC(=O)Nc1ccc(-c2ccnc3c2cc(CN2CC[C@H](c4ccc(C(=O)N(C)C)cc4)[C@@H](C)C2=O)n3C)cc1 (single isomer, unassigned) [1aa2′] | 116
19 | Cc1nc(N)cnc1-c1ccnc2c1cc(CN1CCC(c3ccc(C(=O)N(C)C)cc3)CC1)n2C [Example 1k39, 4-[1-[[4-(5-Amino-3-methyl-pyrazin-2-yl)-1-methyl-pyrrolo[2,3-b]pyridin-2-yl]methyl]-4-piperidyl]-N,N-dimethyl-benzamide] | 2280

Further molecules by falling Kd, results first:

Row | Kd [nM] | SMILES
20 | 3980 | C[C@H]1C[C@H](c2ccc(C(=O)N(C)C)cc2)CCN1Cc1cc2c(-c3ccc(N)cn3)ccnc2n1C (stereo in doubt) [Example 1q8, N,N-dimethyl-4-[(2S,4R)-1-[[4-(5-amino-2-pyridyl)-1-methyl-pyrrolo[2,3-b]pyridin-2-yl]methyl]-2-methyl-4-piperidyl]benzamide]
21 | 1350 | CNc1ccc(-c2ccnc3c2cc([C@@H](C)N2CCC(c4ccc(C(=O)N(C)C)cc4)CC2)n3C)nc1 [Example 1o25, (R)—N,N-dimethyl-4-(1-(1-(1-methyl-4-(5-(methyl-amino)pyridin-2-yl)-1H-pyrrolo[2,3-b]pyridin-2-yl)ethyl)piperidin-4-yl)benzamide]
22 | 254 | Cc1cc(N)nc(C)c1-c1ccnc2c1cc(CN1CCC(c3ccc(C(=O)N(C)C)cc3)CC1)n2C [Example 1k65, 4-[1-[[4-(6-Amino-2,4-dimethyl-3-pyridyl)-1-methyl-pyrrolo[2,3-b]pyridin-2-yl]methyl]-4-piperidyl]-N,N-dimethyl-benzamide]
23 | 188 | CN(C)C(=O)c1ccc(C2CCN(Cc3cc4c(-c5cnc(N)nc5C#N)ccnc4n3C)CC2)cc1 [Example 1k41, 4-[1-[[4-(2-Amino-4-cyano-pyrimidin-5-yl)-1-methyl-pyrrolo[2,3-b]pyridin-2-yl]methyl]-4-piperidyl]-N,N-dimethyl-benzamide]
24 | 148 | CNc1ccc(-c2ccnc3c2cc(CN2CCC(c4ccc(C(=O)N(C)C)cn4)CC2)n3C)nn1 [Example 1p5, N,N-Dimethyl-6-[1-[[1-methyl-4-[6-(methylamino)pyridazin-3-yl]pyrrolo[2,3-b]pyridin-2-yl]methyl]-4-piperidyl]pyridine-3-carboxamide]
25 | 83.9 | CN(C)C(=O)c1ccc(C2CCN(Cc3cc4c(-c5ccc(N)c(C#N)n5)ccnc4n3C)CC2)cc1 [Example 1k75, 4-(1-((4-(5-Amino-6-cyanopyridin-2-yl)-1-methyl-1H-pyrrolo[2,3-b]pyridin-2-yl)methyl)piperidin-4-yl)-N,N-dimethylbenzamide]
26 | 79.4 | CN(C)C(=O)c1ccc(C2CCN(Cc3cc4c(-c5ccc(N)c(O)n5)ccnc4n3C)CC2)cc1 [Example 1ad1, 4-(1-((4-(5-Amino-6-hydroxypyridin-2-yl)-1-methyl-1H-pyrrolo[2,3-b]pyridin-2-yl)methyl)piperidin-4-yl)-N,N-dimethylbenzamide]
27 | 16.8 | COC(=O)CNc1ccc(-c2ccnc3c2cc(CN2CCC(c4ccc(C(=O)N(C)C)cc4)CC2)n3C)cn1 [Example 1k26, Methyl 2-[[5-[2-[[4-[4-(dimethylcarbamoyl)phenyl]-1-piperidyl]methyl]-1-methyl-pyrrolo[2,3-b]pyridin-4-yl]-2-pyridyl]amino]acetate]
28 | 13.5 | CN(C)C(=O)c1ccc(C2CCN(Cc3cc4c(-c5ccc(N)nn5)ccnc4n3C)CC2)cc1 [Example 1k68, 4-[1-[[4-(6-Aminopyridazin-3-yl)-1-methyl-pyrrolo[2,3-b]pyridin-2-yl]methyl]-4-piperidyl]-N,N-dimethyl-benzamide]
29 | 12.8 | CN(C)C(=O)c1ccc(C2CCN(Cc3cc4c(-c5ccc(N)c(C(=O)C(=O)O)c5)ccnc4n3C)CC2)cc1 [Example 1j13, 2-(2-Amino-5-(2-((4-(4-(dimethylcarbamoyl)phenyl)piperidin-1-yl)methyl)-1-methyl-1H-pyrrolo[2,3-b]pyridin-4-yl)phenyl)-2-oxoacetic acid]
